Patent US10821115B2, “Compounds that inhibit Mcl-1 protein” (priority 2017, dated 2020)

Tests used:
[1] = system: human multiple myeloma cell line, OPM-2; experiment: Cell viability assay (OPM-2 10 FBS), CellTiter-Glo; type: cell-based; settings: Homo sapiens, OPM-2, 16 h, read-out: OPM-2 10% FBS IC50 IP, OPM-2 cells, 10% FBS, 16 h incubation
Method in brief: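 IC50 values come from 4-parameter logistic fits of luminescence signals reflecting cell viability. Treatment lasted 16 h at 37 °C in complete medium with 10% FBS, starting from 3000 cells/well.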

[2] = molecular target: recombinant human Mcl-1 (residues 171-327) / Bim interaction (Homo sapiens (Human), UniProt Q07820); experiment: biochemical; type: binding; settings: 0.1 nM Mcl-1(171-327), 0.05 nM biotin-Bim (51-76); read-out: Mcl-1 HTRF IC50
Chain of recombinant human Mcl-1 (residues 171-327) / Bim interaction (Q07820 171-327): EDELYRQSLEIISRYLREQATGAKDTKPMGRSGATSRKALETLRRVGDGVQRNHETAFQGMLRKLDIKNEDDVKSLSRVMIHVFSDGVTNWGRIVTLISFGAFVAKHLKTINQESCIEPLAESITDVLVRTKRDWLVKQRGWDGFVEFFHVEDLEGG

Compound	IC50 [1]	IC50 [2]
CO[C@@]1(CN2CCN(c3cccnc3)CC2)/C=C/C[C@H](C)[C@@H](C)S(=O)(=O)NC(=O)c2ccc3c(c2)N(C[C@@H]2CC[C@H]21)C[C@@]1(CCCc2cc(Cl)ccc21)CO3 [Example 253, (1S,3′R,6′R,7′S,8′E,11′S,12′R)-6-chloro-7′-methoxy-11′,12′-dimethyl-7′-((4-(3-pyridinyl)-1-piperazinyl)methyl)-3,4-dihydro-2H,15′H-spiro[naphthalene-1,22′-[20]oxa[13]thia[1,14]diazatetracyclo [14.7.2.0~3,6~.0~19,24~]pentacosa[8,16,18,24]tetraen]-15′-one 13′,13′-dioxide]	887 nM	0.804 nM
CO[C@@]1(CN2CCN(c3ccncc3)CC2)/C=C/C[C@H](C)[C@@H](C)S(=O)(=O)NC(=O)c2ccc3c(c2)N(C[C@@H]2CC[C@H]21)C[C@@]1(CCCc2cc(Cl)ccc21)CO3 [Example 254, (1S,3′R,6′R,7′S,8′E,11′S,12′R)-6-chloro-7′-methoxy-11′,12′-dimethyl-7′-((4-(4-pyridinyl)-1-piperazinyl)methyl)-3,4-dihydro-2H,15′H-spiro[naphthalene-1,22′-[20]oxa[13]thia[1,14]diazatetracyclo [14.7.2.0~3,6~.0~19,24~]pentacosa[8,16,18,24]tetraen]-15′-one 13′,13′-dioxide]	544 nM	1.2 nM
CO[C@@]1(CN2CCN(c3nccs3)CC2)/C=C/C[C@H](C)[C@@H](C)S(=O)(=O)NC(=O)c2ccc3c(c2)N(C[C@@H]2CC[C@H]21)C[C@@]1(CCCc2cc(Cl)ccc21)CO3 [Example 255, (1S,3′R,6′R,7′S,8′E,11′S,12′R)-6-chloro-7′-methoxy-11′,12′-dimethyl-7′-((4-(1,3-thiazol-2-yl)-1-piperazinyl)methyl)-3,4-dihydro-2H,15′H-spiro[naphthalene-1,22′-[20]oxa[13]thia[1,14]diazatetracyclo [14.7.2.0~3,6~.0~19,24~]pentacosa[8,16,18,24]tetraen]-15′-one 13′,13′-dioxide]	1480 nM	1.74 nM
CO[C@@]1(CN2CCN(c3ncccn3)CC2)/C=C/C[C@H](C)[C@@H](C)S(=O)(=O)NC(=O)c2ccc3c(c2)N(C[C@@H]2CC[C@H]21)C[C@@]1(CCCc2cc(Cl)ccc21)CO3 [Example 256, (1S,3′R,6′R,7′S,8′E,11′S,12′R)-6-chloro-7′-methoxy-11′,12′-dimethyl-7′-((4-(2-pyrimidinyl)-1-piperazinyl)methyl)-3,4-dihydro-2H,15′H-spiro[naphthalene-1,22′-[20]oxa[13]thia[1,14]diazatetracyclo [14.7.2.0~3,6~.0~19,24~]pentacosa[8,16,18,24]tetraen]-15′-one 13′,13′-dioxide]	1640 nM	0.433 nM
CO[C@@]1(CN2CCN(c3cnccn3)CC2)/C=C/C[C@H](C)[C@@H](C)S(=O)(=O)NC(=O)c2ccc3c(c2)N(C[C@@H]2CC[C@H]21)C[C@@]1(CCCc2cc(Cl)ccc21)CO3 [Example 257, (1S,3′R,6′R,7′S,8′E,11′S,12′R)-6-chloro-7′-methoxy-11′,12′-dimethyl-7′-((4-(2-pyrazinyl)-1-piperazinyl)methyl)-3,4-dihydro-2H,15′H-spiro[naphthalene-1,22′-[20]oxa[13]thia[1,14]diazatetracyclo [14.7.2.0~3,6~.0~19,24~]pentacosa[8,16,18,24]tetraen]-15′-one 13′,13′-dioxide]	981 nM	0.403 nM
CO[C@@]1(CN2CC(N3CCOCC3)C2)/C=C/C[C@H](C)[C@@H](C)S(=O)(=O)NC(=O)c2ccc3c(c2)N(C[C@@H]2CC[C@H]21)C[C@@]1(CCCc2cc(Cl)ccc21)CO3 [Example 258, (1S,3′R,6′R,7′S,8′E,11′S,12′R)-6-chloro-7′-methoxy-11′,12′-dimethyl-7′-((3-(4-morpholinyl)-1-azetidinyl)methyl)-3,4-dihydro-2H,15′H-spiro[naphthalene-1,22′-[20]oxa[13]thia[1,14]diazatetracyclo [14.7.2.0~3,6~.0~19,24~]pentacosa[8,16,18,24]tetraen]-15′-one 13′,13′-dioxide]	95 nM	0.069 nM
CO[C@@]1(CN2CCN(C(=O)N(C)C)CC2)/C=C/C[C@H](C)[C@@H](C)S(=O)(=O)NC(=O)c2ccc3c(c2)N(C[C@@H]2CC[C@H]21)C[C@@]1(CCCc2cc(Cl)ccc21)CO3 [Example 259, 4-(((1S,3′R,6′R,7′S,8′E,11′S, 12′R)-6-chloro-7′-methoxy-11′,12′-dimethyl-13′,13′-dioxido-15′-oxo-3,4-dihydro-2H-spiro[naphthalene-1,22′-[20]oxa[13]thia[1,14]diazatetracyclo [14.7.2.0~3,6~.0~19,24~]pentacosa[8,16,18,24]tetraen]-7′-yl)methyl)-N,N-dimethyl-1-piperazinecarboxamide]	254 nM	0.23 nM
COCCN(C)C1CN(C[C@]2(OC)/C=C/C[C@H](C)[C@@H](C)S(=O)(=O)NC(=O)c3ccc4c(c3)N(C[C@@H]3CC[C@H]32)C[C@@]2(CCCc3cc(Cl)ccc32)CO4)C1 [Example 260, (1S,3′R,6′R,7′S,8′E,11′S,12′R)-6-chloro-7′-methoxy-7′-((3-((2-methoxyethyl)(methyl)amino)-1-azetidinyl)methyl)-11′,12′-dimethyl-3,4-dihydro-2H,15′H-spiro[naphthalene-1,22′-[20]oxa[13]thia[1,14]diazatetracyclo [14.7.2.0~3,6~.0~19,24~]pentacosa[8,16,18,24]tetraen]-15′-one 13′,13′-dioxide]	103 nM	0.083 nM
CCOC(=O)CN1CCN(C[C@]2(OC)/C=C/C[C@H](C)[C@@H](C)S(=O)(=O)NC(=O)c3ccc4c(c3)N(C[C@@H]3CC[C@H]32)C[C@@]2(CCCc3cc(Cl)ccc32)CO4)CC1 [Example 261, ethyl (4-(((1S,3′R,6′R,7′S,8′E,11′S, 12′R)-6-chloro-7′-methoxy-11′,12′-dimethyl-13′,13′-dioxido-15′-oxo-3,4-dihydro-2H-spiro[naphthalene-1,22′-[20]oxa[13]thia[1,14]diazatetracyclo [14.7.2.0~3,6~.0~19,24~]pentacosa[8,16,18,24]tetraen]-7′-yl)methyl)-1-piperazinyl)acetate]	146 nM	0.153 nM
CO[C@@]1(CN2CCC3(CCOCC3)CC2)/C=C/C[C@H](C)[C@@H](C)S(=O)(=O)NC(=O)c2ccc3c(c2)N(C[C@@H]2CC[C@H]21)C[C@@]1(CCCc2cc(Cl)ccc21)CO3 [Example 264, (1S,3′R,6′R,7′S,8′E,11′S,12′R)-6-chloro-7′-methoxy-11′,12′-dimethyl-7′-(3-oxa-9-azaspiro[5.5]undec-9-ylmethyl)-3,4-dihydro-2H,15′H-spiro[naphthalene-1,22′-[20]oxa[13]thia[1,14]diazatetracyclo [14.7.2.0~3,6~.0~19,24~]pentacosa[8,16,18,24]tetraen]-15′-one 13′,13′-dioxide]	771 nM	0.396 nM
CO[C@@]1(CN2CCC3(CCOC3)CC2)/C=C/C[C@H](C)[C@@H](C)S(=O)(=O)NC(=O)c2ccc3c(c2)N(C[C@@H]2CC[C@H]21)C[C@@]1(CCCc2cc(Cl)ccc21)CO3 [Example 265, (1S,3′R,6′R,7′S,8′E,11′S,12′R)-6-chloro-7′-methoxy-11′,12′-dimethyl-7′-(2-oxa-8-azaspiro[4.5]dec-8-ylmethyl)-3,4-dihydro-2H,15′H-spiro[naphthalene-1,22′-[20]oxa[13]thia[1,14]diazatetracyclo [14.7.2.0~3,6~.0~19,24~]pentacosa[8,16,18,24]tetraen]-15′-one 13′,13′-dioxide]	578 nM	0.423 nM
COC(=O)N1CCN(C[C@]2(OC)/C=C/C[C@H](C)[C@@H](C)S(=O)(=O)NC(=O)c3ccc4c(c3)N(C[C@@H]3CC[C@H]32)C[C@@]2(CCCc3cc(Cl)ccc32)CO4)CC1 [Example 266, methyl 4-(((1S,3′R,6′R,7′S,8′E,11′S, 12′R)-6-chloro-7′-methoxy-11′,12′-dimethyl-13′,13′-dioxido-15′-oxo-3,4-dihydro-2H-spiro[naphthalene-1,22′-[20]oxa[13]thia[1,14]diazatetracyclo [14.7.2.0~3,6~.0~19,24~]pentacosa[8,16,18,24]tetraen]-7′-yl)methyl)-1-piperazinecarboxylate]	723 nM	0.282 nM
CO[C@@]1(CN2CCC3(CC2)COC3)/C=C/C[C@H](C)[C@@H](C)S(=O)(=O)NC(=O)c2ccc3c(c2)N(C[C@@H]2CC[C@H]21)C[C@@]1(CCCc2cc(Cl)ccc21)CO3 [Example 267, (1S,3′R,6′R,7′S,8′E,11′S,12′R)-6-chloro-7′-methoxy-11′,12′-dimethyl-7′-(2-oxa-7-azaspiro[3.5]non-7-ylmethyl)-3,4-dihydro-2H,15′H-spiro[naphthalene-1,22′-[20]oxa[13]thia[1,14]diazatetracyclo [14.7.2.0~3,6~.0~19,24~]pentacosa[8,16,18,24]tetraen]-15′-one 13′,13′-dioxide]	250 nM	0.297 nM
CO[C@@]1(CN2CCN(C3(C)COC3)CC2)/C=C/C[C@H](C)[C@@H](C)S(=O)(=O)NC(=O)c2ccc3c(c2)N(C[C@@H]2CC[C@H]21)C[C@@]1(CCCc2cc(Cl)ccc21)CO3 [Example 268, (1S,3′R,6′R,7′S,8′E,11′S,12′R)-6-chloro-7′-methoxy-11′,12′-dimethyl-7′-((4-(3-methyl-3-oxetanyl)-1-piperazinyl)methyl)-3,4-dihydro-2H,15′H-spiro[naphthalene-1,22′-[20]oxa[13]thia[1,14]diazatetracyclo [14.7.2.0~3,6~.0~19,24~]pentacosa[8,16,18,24]tetraen]-15′-one 13′,13′-dioxide]	72 nM	0.065 nM
